“Also recorded” adds a separate entry of the source. Counter-ions that a name gives are not always drawn.
What was measured:
[1] = Rearrangement in simulated gastric fluid or equimolar aqueous HCl (HPLC); format: physicochemical; conditions: 0.08 M aq. HCl, 1 g/L NaCl and 1.6 g/L pepsin, 6 h at 37 °C
CHO-K1 cells = assay: MTT cytotoxicity assay toward CHO cell line; conditions: 72 h exposure, whole concentration range, up to 1 mM
[2] = Kinetics of acid-catalysed rearrangement of 2 to 4 in aqueous HCl (HPLC); conditions: for half-life at 50 µg/mL: 6 M aqueous HCl, Half life of rearrangement, initial concentration 50 µg/mL, n = 3
[3] = Thermal stability of pure crystalline solid; format: physicochemical; conditions: 100 °C for 12 h
mAChR M2 = conditions: read-out: Ki mAChR M2; 90 min at 37 °C, membranes from rat heart tissue; cited from earlier work
mAChR M4 = conditions: read-out: Ki mAChR M4; 90 min at 37 °C, NG108-15 cells; cited from earlier work
human mAChR M4 = biological target: T1, human mAChR M4 (Homo sapiens, UniProt P08173); assay: Competitive [3H]NMS radioligand binding assay on CHO cell membranes, mAChR M4; conditions: CHO cell membranes with human receptor, 1.5 h at 20 °C, this work
T1 construct: host or cells: CHO-K1 (stably transfected), membrane preparation
T1 sequence (P08173 1-479): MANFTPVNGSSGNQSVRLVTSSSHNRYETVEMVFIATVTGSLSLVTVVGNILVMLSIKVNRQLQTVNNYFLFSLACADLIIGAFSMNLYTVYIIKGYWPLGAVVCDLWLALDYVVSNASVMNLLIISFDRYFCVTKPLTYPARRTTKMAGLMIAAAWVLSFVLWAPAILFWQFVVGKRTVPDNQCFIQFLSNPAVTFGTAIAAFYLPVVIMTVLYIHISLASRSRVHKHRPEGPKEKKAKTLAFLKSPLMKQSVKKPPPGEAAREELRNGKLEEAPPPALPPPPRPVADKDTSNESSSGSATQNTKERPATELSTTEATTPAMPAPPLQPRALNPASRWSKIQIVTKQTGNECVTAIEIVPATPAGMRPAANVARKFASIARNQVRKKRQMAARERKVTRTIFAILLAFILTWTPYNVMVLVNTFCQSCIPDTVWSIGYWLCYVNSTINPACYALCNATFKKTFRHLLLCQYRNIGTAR
Method: (§1) Filter bound decay rate is normalized to 1 for binding in absence of competitor and to 0 for nonspecific binding.
(§2) Membrane preparations of mAChR M1, M2, M3, M4 or M5 receptors were produced from the respective cell line as follows. The medium of a confluent T175 cell culture flask was poured off and the cell layer was washed with ice-cold PBS. Cells were scraped off and suspended in 2 mL 10 mM Tris/HCl, 1 mM EDTA buffer (pH 7.4) and 200 µL protease inhibitor cocktail. A cell homogenate obtained from passing the cell suspension through a G29 needle was centrifuged (10 min, 1,000 g, 4 °C).
(§3) A competitive radioligand binding assay using [^3H]NMS and variable concentrations of test compounds was performed in assay buffer (50 mM Tris/HCl, 10 mM MgCl2, 1 mM EDTA). Polypropylene tubes were filled with 5 µL aqueous solution of the test compounds, 50 µL radioligand solution in assay buffer and 445 µL membrane suspension in assay buffer (diluted approx. 1:100), shaken and incubated for 1.5 h at 20 °C. Nonspecific binding of the radioligand was determined by using 5 µL of a 1 µM scopolamine hydrobromide solution. The concentration of the radioligand solution was chosen as 2 nM, 3 nM, 8 nM, 2 nM and 10 nM for M1-M5, respectively. […] Specific binding was calculated as total binding minus nonspecific binding. To delineate the IC50 value, specific binding was plotted against the logarithm of the test compound concentration and fitted by a variable slope logistic regression.
(§4) Table S3: HPLC parameters of the methods for the analysis of pirenzepine, telenzepine and their rearrangement products. LOD = limit of
(§5) detection, LOL = limit of linearityi
(§6) Stably transfected CHO-K1 cells containing human muscarinic receptors M1-M5 were purchased from Missouri
(§7) University of Science and Technology cDNA Resource Center (Cell Catalog#: CEM1000000, CEM2000000,
(§8) Limited) supplemented with 10% FBS (Gibco, Life Tec hnologies Limited) and 250 µg/mL Geneticin® (G418, Thermo
(§9) Fisher) at 37 °C and 5% CO2 in a cell incubator. Cells were passaged using Gibco Trypsin -EDTA (0.05%). A solution of […]

human mAChR M5 = biological target: T2, human mAChR M5 (Homo sapiens, UniProt P08912); assay: Competitive [3H]NMS radioligand binding assay on CHO cell membranes, mAChR M5; conditions: CHO cell membranes with human receptor, 1.5 h at 20 °C, this work
T2 construct: host or cells: CHO-K1 (stably transfected), membrane preparation
T2 sequence (P08912 1-532): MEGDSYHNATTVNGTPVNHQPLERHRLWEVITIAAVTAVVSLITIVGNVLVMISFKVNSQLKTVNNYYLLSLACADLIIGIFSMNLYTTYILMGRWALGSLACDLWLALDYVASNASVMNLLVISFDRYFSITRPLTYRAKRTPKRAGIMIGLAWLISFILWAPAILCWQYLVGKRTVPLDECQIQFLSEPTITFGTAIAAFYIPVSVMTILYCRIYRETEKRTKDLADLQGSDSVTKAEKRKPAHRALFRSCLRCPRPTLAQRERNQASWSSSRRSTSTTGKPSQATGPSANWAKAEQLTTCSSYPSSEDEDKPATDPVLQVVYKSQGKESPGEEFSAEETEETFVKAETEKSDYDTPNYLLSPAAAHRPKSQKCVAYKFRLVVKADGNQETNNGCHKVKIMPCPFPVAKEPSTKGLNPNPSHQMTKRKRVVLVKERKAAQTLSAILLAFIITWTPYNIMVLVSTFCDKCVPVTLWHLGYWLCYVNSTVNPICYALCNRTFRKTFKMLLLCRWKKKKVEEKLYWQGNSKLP
Method: as §1, §2, §3, §4, §5, §6, §7, §8, §9

mAChR M1 = conditions: read-out: Ki mAChR M1; 90 min at 37 °C, transfected A9L cells; cited from earlier work
human mAChR M3 = biological target: T3, human mAChR M3 (Homo sapiens, UniProt P20309); assay: Competitive [3H]NMS radioligand binding assay on CHO cell membranes, mAChR M3; conditions: CHO cell membranes with human receptor, 1.5 h at 20 °C, this work
T3 construct: host or cells: CHO-K1 (stably transfected), membrane preparation
Method: as §1, §2, §3, §4, §5, §6, §7, §8, §9

mAChR M3 = biological target: mAChR M3; parameters: method as in PMID 2066986; conditions: 90 min at 37 °C, transfected A9L cells; cited from earlier work
human mAChR M1 = biological target: T4, human mAChR M1 (Homo sapiens, UniProt P11229); assay: Competitive [3H]NMS radioligand binding assay on CHO cell membranes, mAChR M1; conditions: for Ki: [3H]NMS 0.2 nM, CHO cell membranes with human receptor, 1.5 h at 20 °C, this work
T4 construct: host or cells: CHO-K1 (stably transfected), membrane preparation
T4 sequence (P11229 1-460): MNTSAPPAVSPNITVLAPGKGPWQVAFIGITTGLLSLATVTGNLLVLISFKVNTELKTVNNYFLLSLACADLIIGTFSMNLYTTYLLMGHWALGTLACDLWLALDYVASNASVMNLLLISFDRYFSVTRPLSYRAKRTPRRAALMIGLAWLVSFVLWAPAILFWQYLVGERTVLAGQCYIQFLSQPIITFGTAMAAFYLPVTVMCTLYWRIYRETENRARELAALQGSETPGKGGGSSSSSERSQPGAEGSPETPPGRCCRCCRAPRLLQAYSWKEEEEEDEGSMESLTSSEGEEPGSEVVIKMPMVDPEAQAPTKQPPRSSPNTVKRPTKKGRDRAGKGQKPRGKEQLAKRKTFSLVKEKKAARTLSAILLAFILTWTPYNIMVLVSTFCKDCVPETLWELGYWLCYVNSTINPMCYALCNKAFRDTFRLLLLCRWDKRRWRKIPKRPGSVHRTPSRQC
Method: as §1, §2
as §3, with “solution.” for “solution. The concentration of the radioligand solution was chosen as 2 nM, 3 nM, 8 nM, 2 nM and 10 nM for M1-M5, respectively.”
as §4, §5, §6, §7, §8
Fisher) at 37 °C and 5% CO2 in a cell incubator. Cells were passaged using Gibco Trypsin -EDTA (0.05%). A solution of
P2714-1BTL, Sigma-Aldrich in 10 mL water was used as protease inhibitor cocktail.

human mAChR M2 = biological target: T5, human mAChR M2 (Homo sapiens, UniProt P08172); assay: Competitive [3H]NMS radioligand binding assay on CHO cell membranes, mAChR M2; conditions: CHO cell membranes with human receptor, 1.5 h at 20 °C, this work
T5 construct: host or cells: CHO-K1 (stably transfected), membrane preparation
T5 sequence (P08172 1-466): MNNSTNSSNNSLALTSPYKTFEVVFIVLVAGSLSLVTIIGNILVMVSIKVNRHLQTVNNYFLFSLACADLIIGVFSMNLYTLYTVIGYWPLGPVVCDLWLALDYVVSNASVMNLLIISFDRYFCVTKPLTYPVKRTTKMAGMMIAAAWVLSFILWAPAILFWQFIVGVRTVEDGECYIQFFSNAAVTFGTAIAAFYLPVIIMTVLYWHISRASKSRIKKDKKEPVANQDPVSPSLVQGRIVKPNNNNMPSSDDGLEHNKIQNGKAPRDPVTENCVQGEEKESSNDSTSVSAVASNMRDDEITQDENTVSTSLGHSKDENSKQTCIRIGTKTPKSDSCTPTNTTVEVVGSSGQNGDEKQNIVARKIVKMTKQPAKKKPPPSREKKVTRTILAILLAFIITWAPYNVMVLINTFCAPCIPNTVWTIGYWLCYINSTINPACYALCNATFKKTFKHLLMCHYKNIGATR
Method: as §1, §2, §3, §4, §5, §6, §7, §8, §9

T3 sequence (P20309 whole entry): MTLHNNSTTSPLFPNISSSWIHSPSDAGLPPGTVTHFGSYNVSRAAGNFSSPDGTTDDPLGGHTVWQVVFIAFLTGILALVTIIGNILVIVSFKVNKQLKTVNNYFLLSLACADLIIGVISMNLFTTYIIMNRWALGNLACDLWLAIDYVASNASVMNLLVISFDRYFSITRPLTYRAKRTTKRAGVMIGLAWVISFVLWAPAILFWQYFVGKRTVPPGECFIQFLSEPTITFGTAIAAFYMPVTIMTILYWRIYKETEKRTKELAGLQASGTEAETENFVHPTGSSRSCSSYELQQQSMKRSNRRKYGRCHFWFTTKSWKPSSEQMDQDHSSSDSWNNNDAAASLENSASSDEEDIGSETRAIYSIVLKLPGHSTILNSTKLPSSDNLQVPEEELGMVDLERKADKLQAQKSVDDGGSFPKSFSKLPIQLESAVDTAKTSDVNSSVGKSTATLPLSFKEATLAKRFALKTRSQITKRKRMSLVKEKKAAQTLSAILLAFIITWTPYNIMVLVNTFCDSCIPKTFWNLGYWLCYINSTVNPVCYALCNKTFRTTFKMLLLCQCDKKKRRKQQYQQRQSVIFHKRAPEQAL

Formation of 4 from 2 ([2]; 0.1 M aqueous HCl at 37 °C, 55 °C or 75 °C overnight) [%] | Activation energy of the rearrangement ([2]; 6 M HCl, from slope of Arrhenius plot) [kcal/mol] | half-life at 50 µg/mL ([2]; 6 M HCl, 37 °C) [h] | half-life at 50 µg/mL ([2]; 6 M HCl, 55 °C) [h] | half-life at 50 µg/mL ([2]; 6 M HCl, 75 °C) [h] | Conversion of 2 to 4 ([2]; strong excess of aqueous HCl (6 M), pseudo first order kinetic) | Ki (human mAChR M4) [nM] | Ki (human mAChR M5) [nM] | Ki (human mAChR M3) [nM] | Ki (human mAChR M1) [nM] | Loss of affinity towards M1 on rearrangement (affinity constant of rearranged product vs parent) (human mAChR M1; rearranged product (4 or 5) versus parent drug) [fold] | Ki (human mAChR M2) [nM] | Compound | Isomerization of 2 to 4 in simulated gastric fluid [1] | Effect on cell viability (MTT assay) (CHO-K1 cells) | Formation of 4 on heating the solid [3] | Ki (mAChR M2) [nM] | Ki (mAChR M4) [nM] | Ki (mAChR M1) [nM] | Ki (mAChR M3) [nM]
< 1 | 19.9 ± 0.454 | 13.8 ± 0.5 | 1.95 ± 0.267 | 0.417 ± 0.0333 | quantitative conversion | – | – | – | – | – | – | CN1CCN(CC(=O)N2c3ccccc3C(=O)Nc3cccnc32)CC1 [Compound 2, Pirenzepine dihydrochloride] | neither simulated gastric fluid (0.08 M aq. HCl, 1 g/L NaCl and 1.6 g/L pepsin) nor equimolar aqueous HCl solution caused detectable isomerization | No cytotoxic effect | did not result in formation of 4 in detectable amounts | – | – | – | –
– | – | – | – | – | – | 29 ± 16 | 16 ± 9 | 12 ± 2 | 1.8 ± 0.8 | 780 | 26 ± 5 | Cc1scc2c1N(C(=O)CN1CCN(C)CC1)c1ccccc1NC2=O [telenzepine 2HCl, Telenzepine dihydrochloride] | – | No cytotoxic effect | – | 50.3 | 17.4 | 1.8 | 6.9
– | – | – | – | – | – | 2000 ± 400 | 4100 ± 200 | 8000 ± 3000 | 1400 ± 300 | – | 10600 ± 1500 | Cc1scc(C(=O)O)c1-n1c(CN2CCN(C)CC2)nc2ccccc21 [Compound 5, 5-methyl-4-(2-((4-methylpiperazin-1-yl)methyl)-1H-benzo[d]imidazol-1-yl)thiophene-3-carboxylic acid] | – | No cytotoxic effect; also recorded: without measurable effect on cell viability | – | – | – | – | –
– | – | – | – | – | – | 1200 ± 200 | 360 ± 20 | 7000 ± 2000 | 600 ± 20 | – | 47000 ± 19000 | CN1CCN(Cc2nc3cccnc3n2-c2ccccc2C(=O)O)CC1.Cl.Cl [Compound 4, 2-(2-((4-methylpiperazin-1-yl)methyl)-3H-imidazo[4,5-b]pyridin-3-yl)benzoic acid dihydrochloride] | – | No cytotoxic effect; also recorded: without measurable effect on cell viability | – | – | – | – | –

— publication PMC8642400, “Unexpected scaffold rearrangement product of pirenzepine found in commercial samples” (Scientific Reports, 2021)
